Data: ChEMBL document CHEMBL1201862, “PubChem BioAssay data set” (2004)
Active and inactive are the calls of the source.

Tests used:
[1] = molecular target: T1, E3 ubiquitin-protein ligase XIAP (Homo sapiens, UniProt P98170); assay: Counter Screen using XIAP-Bir3 for Chemical Antagonists of Bir1/2 domains of IAP-family anti-apoptotic proteins. [Related pubchem assays (depositor defined):AID1018, AID1449, AID1514, AID1638, AID1749, AID1750, AID488957, AID488963]
[2] = molecular target: T1, E3 ubiquitin-protein ligase XIAP; assay: small molecules displacing peptide from XIAP – biochemical, IAP family, fluorescence polarization (AID 1018); type: functional
[3] = system: HEK293; assay: inhibition of NOD1-driven NF-kB reporter – cell-based, luminescence, uHTS, primary screen (AID 1578); type: functional; settings: Homo sapiens
[4] = system: HEK293; assay: cells; type: functional, cell-based; settings: Homo sapiens
[5] = system: HEK293; assay: cells; type: functional, cell-based; settings: Homo sapiens; remark: listed apart in the source
[6] = molecular target: Nucleotide-binding oligomerization domain-containing protein 2 (Homo sapiens, UniProt Q9HC29); assay: inhibition of NOD2-driven NF-kB reporter – cell-based, luminescence, uHTS, HEK293 (AID 1566); type: functional
[7] = system: HEK293; assay: NOD2 signaling inhibitors in MDP-stimulated cells, cell-based, uHTS, luminescence (AID 2001); type: functional; settings: Homo sapiens
[8] = system: HEK293; assay: cells; type: functional, cell-based; settings: Homo sapiens; remark: listed apart in the source
[9] = reduction of Shn3 3'UTR-driven luciferase in osteoblasts – cell-based, Clone20 osteoblasts, firefly luciferase, cherry-picked, dose response (AID 624132); type: functional;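 also: firefly luciferase luminescence from reporter carrying the Shn3 3'UTR in osteoblasts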
[10] = loss of viability in HepG2 cells – cell-based, CellTiter-Glo, cherry-picked, cytotoxicity control for Shn3 inhibitor project, dose response (AID 624134); type: functional
[11] = non-specific 3'UTR reporter inhibition in Clone20-Shn3RL – cell-based, Renilla luciferase, cherry-picked, counter-screen for Shn3 inhibitor project, dose response (AID 624133); type: functional
[12] = system: Streptococcus sp. 'group A'; assay: Streptococcus pyogenes SK(-)GAS viability under kanamycin – luminescence, BacTiterGlo, confirmation, counter-screen for streptokinase expression inhibitor project, dose response (AID 1900); type: functional, organism-based
[13] = molecular target: T2, Streptokinase A (Streptococcus pyogenes serotype M1, UniProt P10520); assay: viability-normalized secreted streptokinase activity reduction – plasminogen activation absorbance, OD405, dose response (AID 1914); type: functional, Streptococcus pyogenes M1 GAS;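 also: secreted streptokinase activity via plasminogen activation per viability signal from cell pellet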
T2 sequence (P10520 whole entry): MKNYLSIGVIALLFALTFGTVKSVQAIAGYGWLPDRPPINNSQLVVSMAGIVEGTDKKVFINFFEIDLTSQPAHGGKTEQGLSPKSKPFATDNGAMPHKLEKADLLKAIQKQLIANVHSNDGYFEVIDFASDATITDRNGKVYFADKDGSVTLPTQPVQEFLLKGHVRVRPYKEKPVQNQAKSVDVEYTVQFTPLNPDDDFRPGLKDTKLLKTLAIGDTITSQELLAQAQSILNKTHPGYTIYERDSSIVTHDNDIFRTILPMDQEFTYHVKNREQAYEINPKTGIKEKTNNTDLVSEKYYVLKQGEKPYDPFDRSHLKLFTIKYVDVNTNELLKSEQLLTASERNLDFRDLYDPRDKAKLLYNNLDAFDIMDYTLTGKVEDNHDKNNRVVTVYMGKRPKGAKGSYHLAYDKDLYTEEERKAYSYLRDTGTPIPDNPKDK

[14] = system: Streptococcus; assay: GAS UMAA2166 growth inhibition – luminescence, BacTiterGlo, counter-screen for streptokinase expression inhibitor project, dose response (AID 1915); type: functional, organism-based;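 also: potency for reduction of bacterial viability or growth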
[15] = molecular target: Troponin, cardiac muscle (Homo sapiens, UniProt P19429+P45379+P63316); assay: Fluorescence-based biochemical high throughput dose response assay for activators of the calcium sensitivity of cardiac Regulated Thin Filaments (RTF). [Related pubchem assays (depositor defined):AID493008, AID493018, AID504382, AID504383]; type: protein-complex assay
[16] = molecular target: T3, Exodeoxyribonuclease V (Escherichia coli (strain K12), UniProt P04993+P07648+P08394); assay: RecBCD inhibition via phage-restricted bacterial growth – absorbance, V66 E. coli, mutant T4 phage, counter-screen for AddAB inhibitor project, dose response (AID 492957); type: functional, cell-based, Escherichia coli str. K-12 substr. MG1655
T3 sequence (P04993 whole entry): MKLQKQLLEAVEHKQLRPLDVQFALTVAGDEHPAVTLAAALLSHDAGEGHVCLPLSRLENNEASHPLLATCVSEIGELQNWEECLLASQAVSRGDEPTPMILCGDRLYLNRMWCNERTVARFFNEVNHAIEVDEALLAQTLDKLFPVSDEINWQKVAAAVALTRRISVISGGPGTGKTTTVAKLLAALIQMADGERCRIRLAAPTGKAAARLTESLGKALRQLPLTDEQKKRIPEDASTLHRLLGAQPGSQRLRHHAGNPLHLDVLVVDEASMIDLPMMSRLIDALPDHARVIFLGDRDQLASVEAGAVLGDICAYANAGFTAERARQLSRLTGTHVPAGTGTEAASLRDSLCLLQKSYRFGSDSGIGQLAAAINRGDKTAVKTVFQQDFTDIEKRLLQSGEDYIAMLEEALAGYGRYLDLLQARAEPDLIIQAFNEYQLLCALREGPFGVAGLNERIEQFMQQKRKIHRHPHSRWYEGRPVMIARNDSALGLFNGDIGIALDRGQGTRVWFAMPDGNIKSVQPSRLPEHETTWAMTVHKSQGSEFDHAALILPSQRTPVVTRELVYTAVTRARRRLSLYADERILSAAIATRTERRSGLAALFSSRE
T3 sequence (P07648 whole entry): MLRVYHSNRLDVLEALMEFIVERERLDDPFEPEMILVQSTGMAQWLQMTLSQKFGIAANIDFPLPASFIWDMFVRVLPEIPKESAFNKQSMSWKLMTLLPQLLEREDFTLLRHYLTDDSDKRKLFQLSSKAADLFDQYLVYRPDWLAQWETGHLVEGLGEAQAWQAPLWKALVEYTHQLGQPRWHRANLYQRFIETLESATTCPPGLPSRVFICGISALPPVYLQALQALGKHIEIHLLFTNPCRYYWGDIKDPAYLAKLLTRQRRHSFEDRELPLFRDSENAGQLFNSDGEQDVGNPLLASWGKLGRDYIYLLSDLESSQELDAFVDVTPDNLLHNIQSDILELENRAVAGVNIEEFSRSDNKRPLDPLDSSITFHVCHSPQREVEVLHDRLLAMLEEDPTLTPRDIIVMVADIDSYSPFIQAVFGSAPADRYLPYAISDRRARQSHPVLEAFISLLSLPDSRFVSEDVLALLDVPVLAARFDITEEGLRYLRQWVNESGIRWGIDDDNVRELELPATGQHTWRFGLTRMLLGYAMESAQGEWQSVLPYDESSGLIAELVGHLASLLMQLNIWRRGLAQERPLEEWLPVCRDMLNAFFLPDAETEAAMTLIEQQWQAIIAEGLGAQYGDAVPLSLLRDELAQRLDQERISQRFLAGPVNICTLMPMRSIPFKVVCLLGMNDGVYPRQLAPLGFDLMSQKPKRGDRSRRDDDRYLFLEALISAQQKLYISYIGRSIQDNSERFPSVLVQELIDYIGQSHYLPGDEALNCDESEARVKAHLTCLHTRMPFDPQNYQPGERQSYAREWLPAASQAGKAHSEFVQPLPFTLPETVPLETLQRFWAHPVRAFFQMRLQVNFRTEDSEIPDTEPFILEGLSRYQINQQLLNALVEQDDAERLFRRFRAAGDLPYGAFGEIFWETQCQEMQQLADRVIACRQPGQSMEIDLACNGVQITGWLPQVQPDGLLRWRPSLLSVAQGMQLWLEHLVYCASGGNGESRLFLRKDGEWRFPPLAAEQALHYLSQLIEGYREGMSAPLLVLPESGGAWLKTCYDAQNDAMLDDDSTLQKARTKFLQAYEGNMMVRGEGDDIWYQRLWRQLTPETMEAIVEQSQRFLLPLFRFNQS
T3 sequence (P08394 whole entry): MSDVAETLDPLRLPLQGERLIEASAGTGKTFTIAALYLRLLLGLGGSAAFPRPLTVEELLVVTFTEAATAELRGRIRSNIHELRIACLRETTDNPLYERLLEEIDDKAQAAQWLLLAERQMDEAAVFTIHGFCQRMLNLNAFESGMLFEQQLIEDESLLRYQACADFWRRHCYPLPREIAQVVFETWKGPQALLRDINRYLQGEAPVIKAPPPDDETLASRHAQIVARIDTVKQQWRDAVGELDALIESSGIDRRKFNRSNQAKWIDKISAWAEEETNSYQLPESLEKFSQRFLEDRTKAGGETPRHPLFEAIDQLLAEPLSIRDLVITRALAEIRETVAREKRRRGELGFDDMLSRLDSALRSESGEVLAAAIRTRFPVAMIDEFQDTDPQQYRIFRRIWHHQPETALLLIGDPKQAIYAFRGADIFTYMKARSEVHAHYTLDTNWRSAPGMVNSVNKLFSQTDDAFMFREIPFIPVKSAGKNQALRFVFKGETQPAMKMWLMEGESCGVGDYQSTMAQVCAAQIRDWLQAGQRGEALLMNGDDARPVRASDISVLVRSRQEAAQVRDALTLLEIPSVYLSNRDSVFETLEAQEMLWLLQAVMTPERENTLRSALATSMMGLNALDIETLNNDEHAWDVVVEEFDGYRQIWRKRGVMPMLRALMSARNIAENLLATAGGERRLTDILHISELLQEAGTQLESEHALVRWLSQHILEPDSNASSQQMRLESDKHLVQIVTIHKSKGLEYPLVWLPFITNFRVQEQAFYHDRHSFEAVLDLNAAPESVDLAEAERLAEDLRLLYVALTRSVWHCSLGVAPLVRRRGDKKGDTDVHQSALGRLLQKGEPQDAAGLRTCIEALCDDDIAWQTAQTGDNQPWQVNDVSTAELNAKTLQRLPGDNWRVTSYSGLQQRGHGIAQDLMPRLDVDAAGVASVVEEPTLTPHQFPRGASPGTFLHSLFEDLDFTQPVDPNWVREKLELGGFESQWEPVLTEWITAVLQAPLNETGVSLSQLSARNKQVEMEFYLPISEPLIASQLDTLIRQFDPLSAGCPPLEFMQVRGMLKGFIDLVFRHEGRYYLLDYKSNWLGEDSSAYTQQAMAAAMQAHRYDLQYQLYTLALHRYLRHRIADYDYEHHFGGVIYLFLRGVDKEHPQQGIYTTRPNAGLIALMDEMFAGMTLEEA

[17] = Counterscreen for AddAB inhibitors: absorbance-based bacterial cell-based high throughput dose response assay for inhibitors of bacterial viability. [Related pubchem assays (depositor defined):AID435030, AID449728, AID449731, AID488942, AID488955, AID488956]; type: functional
[18] = molecular target: T4, Ubiquitin-conjugating enzyme E2 N (Homo sapiens, UniProt P61088); type: functional;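 also: Dose-response confirmation in a TR-FRET assay detecting UBC13-driven polyubiquitin chain formation, inhibition measured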
T4 sequence (P61088 whole entry): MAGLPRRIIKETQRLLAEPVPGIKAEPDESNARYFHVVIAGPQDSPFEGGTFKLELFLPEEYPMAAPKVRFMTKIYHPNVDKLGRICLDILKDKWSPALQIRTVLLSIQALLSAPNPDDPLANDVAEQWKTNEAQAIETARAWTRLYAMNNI

SMILES: COc1ccc2c(c1)CCc1c(C(=O)Nc3cc(C)n(Cc4ccc(Cl)cc4)n3)noc1-2
- IC50 [1]: > 100 µM (inactive)
- IC50 [2]: > 100 µM (not active)

SMILES: Cc1nc2ccc(NC(=O)c3cccc(S(=O)(=O)N(C)c4ccccc4)c3)cc2s1
- EC50 [3]: 7.57 µM (active)
- IC50 [4]: 6.11 µM (active)
- IC50 [5]: 9.65 µM (active)
- EC50 [6]: 7.35 µM (active)
- IC50 [7]: 5.24 µM (active)
- IC50 [8]: 15.2 µM (active)
- AC50 [9]: 7.6 µM (active)
- AC50 [10]: 58.6 µM (active)
- AC50 [11]: 12.8 µM (active)

SMILES: CCN(CC)S(=O)(=O)c1cccc(C(=O)Nc2nc3cc4c(cc3s2)OCCO4)c1
- EC50 [3]: 3.29 µM (active)
- EC50 [12]: 1.08 µM (active)
- IC50 [4]: 4.3 µM (active)
- EC50 [13]: > 150 µM (not active)
- IC50 [5]: 9.78 µM (active)
- EC50 [6]: 4.53 µM (active)
- IC50 [7]: 3.47 µM (active)
- IC50 [8]: > 20 µM (inactive)
- EC50 [14]: 7.62 µM (active)

SMILES: C[C@@H](C(=O)N1CCNCC1)n1cc(CCCN=C(N)N)nn1
- EC50 [15]: > 71.5 µM (inactive)

SMILES: NC(=O)c1ccsc1NC(=O)COC(=O)c1ccc([N+](=O)[O-])o1
- IC50 [16]: > 119 µM (inactive)
- IC50 [17]: > 39.5 µM (inactive)

SMILES: CCC[C@@H](CN1CCC[C@H]1CN1C(N)=NC[C@@H]1Cc1ccccc1)N1C[C@@H](Cc2ccccc2)N(CCCC2CCCC2)C1=N
- IC50 [18]: > 20 µM (inactive)
- EC50 [15]: > 71.4 µM (inactive)

SMILES: COc1cccc(/C(O)=C/C=N/c2cc(C)ccc2O)c1
- IC50 [1]: > 100 µM (inactive)
- IC50 [2]: > 100 µM (not active)

SMILES: CC/C(=N\NS(C)(=O)=O)c1ccccc1
- IC50 [1]: > 100 µM (inactive)
- IC50 [2]: > 100 µM (not active)
